Key:
[1] = Liquid; for viscosity / mass density: 298.15 K, 101 kPa; for viscosity: Capillary tube (Ostwald / Ubbelohde) method; for mass density: Vibrating tube method
[2] = xn = mol fraction of the nth substance listed; settings: 298.15 K, 101 kPa, Liquid; for viscosity: Capillary tube (Ostwald / Ubbelohde) method; for mass density: Vibrating tube method

CCOC(=O)OCC [diethyl carbonate]
[1]
Settings	mass density [kg/m3]	viscosity [mPa·s]
–	969	0.764

[1]
Settings	vapor or sublimation pressure [kPa]
343.77 K	13.8
351.67 K	19.3
355.63 K	22.7
358.29 K	26
363.84 K	31.3
366.98 K	35.2
369.75 K	39.1
372.28 K	42.8
374.61 K	46.5
377.05 K	50.5
379.59 K	55
381.49 K	58.8
383.37 K	63.1
383.57 K	63.5
386.18 K	68.5
387.61 K	72.8
390.35 K	78.5
392.39 K	84
393.93 K	88.2
395.72 K	93.4
398.28 K	101.5

CCOC(=O)OCC [diethyl carbonate] + C1CC2C3CCC(C3)C2C1
[2], x1 = 1
Settings	mass density [kg/m3]	viscosity [mPa·s]
–	969	0.764

C1CC2C3CCC(C3)C2C1 (stereo not given) [tricyclo[5.2.1.0(2,6)]decane]
[1]
Settings	mass density [kg/m3]	viscosity [mPa·s]
–	931.4	2.739

[1]
Settings	vapor or sublimation pressure [kPa]
393.98 K	15
396.02 K	16.6
401.42 K	20.6
413.88 K	30.3
418.34 K	34.8
426.86 K	44.9
431.22 K	50.7
434.56 K	55.8
436.68 K	59.2
439.31 K	63.2
441.13 K	66.6
442.7 K	69.5
442.81 K	69.8
444.37 K	72.9
445.73 K	75.1
446.13 K	75.9
450.08 K	83.9
457.66 K	101.1

C1CC2C3CCC(C3)C2C1 (stereo not given) [tricyclo[5.2.1.0(2,6)]decane] + CCOC(=O)OCC
[2]
Settings	mass density [kg/m3]	viscosity [mPa·s]
x2 = 0	931.4	2.739
x2 = 0.1141	933.1	2.14
x2 = 0.2235	935.3	1.757
x2 = 0.3303	938.1	1.496
x2 = 0.4355	941.3	1.292
x2 = 0.536	944.8	1.149
x2 = 0.6336	948.8	1.026
x2 = 0.7288	953.4	0.938
x2 = 0.8207	958.2	0.861
x2 = 0.9109	963.5	0.814

— the NIST ThermoML archive (doi:10.1021/je800984q)
